The text below walks through data of patent US7407961B2, “Pyrazine derivatives and pharmaceutical use thereof” (Astellas Pharma Inc., priority 2003, dated 2008).

What is called melting point is the temperature of the solid-liquid transition. A word on the Ki: it is a measure of affinity in units of concentration, obtained from inhibition or displacement.

Data set [1] addresses T1, human A1 receptor (Homo sapiens, UniProt P30542).
T1 sequence (P30542 1-326): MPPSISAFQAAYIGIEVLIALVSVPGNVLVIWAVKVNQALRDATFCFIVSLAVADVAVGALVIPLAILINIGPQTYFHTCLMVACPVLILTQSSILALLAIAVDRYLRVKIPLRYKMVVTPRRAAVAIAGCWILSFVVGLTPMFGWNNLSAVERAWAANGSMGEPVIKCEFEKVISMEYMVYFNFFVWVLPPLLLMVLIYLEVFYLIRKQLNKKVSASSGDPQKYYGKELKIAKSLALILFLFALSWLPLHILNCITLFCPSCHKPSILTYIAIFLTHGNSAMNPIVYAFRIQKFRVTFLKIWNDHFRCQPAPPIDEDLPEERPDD
Put plainly: Adenosine antagonistic activity, radioligand binding with [3H]DPCPX. The note with it: [3H]DPCPX 4.5 nM. As for the experimental part:
(§1) Test 1: Adenosine Antagonistic Activity
(§2) The adenosine antagonistic activity [Ki(nM)] of the test compound was examined by radioligand binding techniques using 8-cyclopentyl-1,3-dipropylxanthine, [dipropyl-2,3-^3H(N)] ([^3H]DPCPX, 4.5 nM) for human A1 receptor and [^3H]CGS 21680 (20 nM) for human A2a receptor.

Data set [2] deals with ddY mice. In words: Anticatalepsy activity in mouse (haloperidol-induced catalepsy, bar test). The note with it: 3.2 mg/kg orally, ddY mice n=7; haloperidol 0.32 mg/kg i.p. 30 min later; measured 30 min after injection. It is filed as in vivo. As for the experimental part: Test 2: Anticatalepsy Activity in Mouse [I] Test Method
The test compound (3.2 mg/kg) was administered orally with ddY mice (n=7). Then, haloperidol (0.32 mg/kg) was injected intraperitoneally 30 min. after the administration of the compound. Thirty min after the injection, the cataleptic responses of mice were measured. The forelimbs of each mouse were placed on a 3 cm high, 3 mm wide horizontal bar, and the duration of cataleptic posture was measured for up to 30 sec.

Data set [3] deals with human A2a receptor (Homo sapiens, UniProt P29274). Put plainly: Adenosine antagonistic activity, radioligand binding with [3H]CGS 21680. The settings on record: [3H]CGS 21680 20 nM. The protocol:
as §1, §2

human A2a receptor, sequence (P29274 whole entry): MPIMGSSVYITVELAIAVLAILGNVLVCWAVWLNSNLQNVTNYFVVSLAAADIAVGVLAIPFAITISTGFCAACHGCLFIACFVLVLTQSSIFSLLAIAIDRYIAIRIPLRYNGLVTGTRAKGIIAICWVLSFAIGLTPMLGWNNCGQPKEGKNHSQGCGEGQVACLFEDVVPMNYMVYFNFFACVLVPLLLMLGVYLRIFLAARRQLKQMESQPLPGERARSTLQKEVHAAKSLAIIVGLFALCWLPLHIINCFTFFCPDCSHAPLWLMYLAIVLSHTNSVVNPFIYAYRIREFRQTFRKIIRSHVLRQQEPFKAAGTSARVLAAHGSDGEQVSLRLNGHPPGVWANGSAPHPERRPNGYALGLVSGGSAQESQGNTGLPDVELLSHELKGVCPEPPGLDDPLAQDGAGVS

The compound `COc1ccccc1-c1nc(N)c(C#N)nc1-c1ccc(=O)n(C(C)C)c1` (hydrate or solvate) [Example 36, 3-Amino-6-(1-isopropyl-6-oxo-1,6-dihydro-3-pyridyl)-5-(2-methoxyphenyl)-2-pyrazinecarbonitrile] displayed a melting point of 222.6 °C.

Compound `COc1cccc(-c2nc(N)c(C#N)nc2-c2ccc(=O)n(C(C)C)c2)c1` (hydrate or solvate) [Example 37, 3-Amino-6-(1-isopropyl-6-oxo-1,6-dihydro-3-pyridyl)-5-(3-methoxyphenyl)-2-pyrazinecarbonitrile] gave a melting point of 192.3 °C.

`COc1ccc(-c2nc(N)c(C#N)nc2-c2ccc(=O)n(C(C)C)c2)cc1` (hydrate or solvate) [Example 38, 3-Amino-6-(1-isopropyl-6-oxo-1,6-dihydro-3-pyridyl)-5-(4-methoxyphenyl)-2-pyrazinecarbonitrile]: the melting point came to 243.9 °C.

In turn, `CC(C)n1cc(-c2nc(C#N)c(N)nc2-c2ccc(F)c(F)c2)ccc1=O` (hydrate or solvate) [Example 39, 3-Amino-5-(3,4-difluorophenyl)-6-(1-isopropyl-6-oxo-1,6-dihydro-3-pyridyl)-2-pyrazinecarbonitrile] displayed a melting point of 180 °C.

`CC(C)n1cc(-c2nc(C(=O)O)c(N)nc2-c2ccc(F)cc2)ccc1=O` (hydrate or solvate) [Example 40, 3-amino-5-(4-fluorophenyl)-6-(1-isopropyl-6-oxo-1,6-dihydro-3-pyridyl)-2-pyrazinecarboxylic acid] gave a melting point of 222.2 °C.

In turn, `COc1ccc(-c2nc(C#N)c(N)nc2-c2ccccc2)cn1` [Example 1, 3-amino-6-(6-methoxy-3-pyridyl)-5-phenyl-2-pyrazinecarbonitrile] registered a melting point of 201 to 205 °C.

`Cn1cc(-c2nc(C(N)=O)c(N)nc2-c2ccccc2)ccc1=O` [Example 3, 3-amino-6-(1-methyl-6-oxo-1,6-dihydro-3-pyridyl)-5-phenyl-2-pyrazinecarboxamide]: the melting point is > 250 °C.

As for `CCn1cc(-c2nc(C(N)=O)c(N)nc2-c2ccccc2)ccc1=O` [Example 4, 3-Amino-6-(1-ethyl-6-oxo-1,6-dihydro-3-pyridyl)-5-phenyl-2-pyrazinecarboxamide], the melting point was > 250 °C. Moreover, affinity in data set [1] was put at a Ki of 5.09 nM. The “Manifestation rate of Catalepsy (number of mouse)” value (from here on “Manifestation rate of Catalepsy”) in data set [2] is listed as 0/7. In data set [3], this compound showed a Ki of 2.34 nM.

For `CCCn1cc(-c2nc(C(N)=O)c(N)nc2-c2ccccc2)ccc1=O` [Example 5, 3-Amino-6-(6-oxo-1-propyl-1,6-dihydro-3-pyridyl)-5-phenyl-2-pyrazinecarboxamide], the melting point is > 250 °C.

In turn, `CC(C)n1cc(-c2nc(C(N)=O)c(N)nc2-c2ccccc2)ccc1=O` [Example 6, 3-Amino-6-(1-isopropyl-6-oxo-1,6-dihydro-3-pyridyl)-5-phenyl-2-pyrazinecarboxamide] had a melting point of 240 to 245 °C.

On to `CCOC(=O)c1nc(-c2ccc(=O)[nH]c2)c(-c2ccccc2)nc1N` [Example 8, Ethyl 3-amino-6-(6-oxo-1,6-dihydro-3-pyridyl)-5-phenyl-2-pyrazinecarboxylate], for which the melting point was 230 to 238 °C.

`CC(C)OC(=O)c1nc(-c2ccc(=O)[nH]c2)c(-c2ccccc2)nc1N` [Example 9, isopropyl 3-amino-6-(6-oxo-1,6-dihydro-3-pyridyl)-5-phenyl-2-pyrazinecarboxylate] had a melting point of 250 to 256 °C.

For `Cn1cc(-c2nc(C#N)c(N)nc2-c2ccccc2)ccc1=O` [Example 11, 3-amino-6-(1-methyl-6-oxo-1,6-dihydro-3-pyridyl)-5-phenyl-2-pyrazinecarbonitrile], the results for the Ki in data set [1] and in data set [3] were 22.5 nM and 2.35 nM, respectively. For the same compound, in data set [2], the “Manifestation rate of Catalepsy” value is on record as 0/7.

Compound `CCn1cc(-c2nc(C#N)c(N)nc2-c2ccccc2)ccc1=O` [Example 12, 3-Amino-6-(1-ethyl-6-oxo-1,6-dihydro-3-pyridyl)-5-phenyl-2-pyrazinecarbonitrile] came in with a melting point of 193 to 199 °C.

`CCCn1cc(-c2nc(C#N)c(N)nc2-c2ccccc2)ccc1=O` [Example 13, 3-Amino-6-(6-oxo-1-propyl-1,6-dihydro-3-pyridyl)-5-phenyl-2-pyrazinecarbonitrile] came in with a melting point of 180 to 183 °C.

On to `CC(C)n1cc(-c2nc(C#N)c(N)nc2-c2ccccc2)ccc1=O` [Example 14, 3-Amino-6-(1-isopropyl-6-oxo-1,6-dihydro-3-pyridyl)-5-phenyl-2-pyrazinecarbonitrile], for which the melting point came to 204.5 °C.

For `CC(C)n1cc(-c2nc(C#N)c(N)nc2-c2ccc(F)c(F)c2)ccc1=O` [Example 39, 3-Amino-5-(3,4-difluorophenyl)-6-(1-isopropyl-6-oxo-1,6-dihydro-3-pyridyl)-2-pyrazinecarbonitrile], the Ki in data set [1] came to 24 nM; in data set [3], 6.52 nM. The “Manifestation rate of Catalepsy” value in data set [2] is listed as 0/7.

In the case of `CC(C)n1cc(-c2nc(C(=O)NCC#N)c(N)nc2-c2ccccc2)ccc1=O` [Example 46, 3-Amino-N-(cyanomethyl)-6-(1-isopropyl-6-oxo-1,6-dihydro-3-pyridyl)-5-phenyl-2-pyrazinecarboxamide], the Ki in data set [1] came out at 5.25 nM; in data set [3] it was 1.49 nM. Besides, the “Manifestation rate of Catalepsy” value in data set [2] was 0/7.

For the compound `CC(C)n1cc(-c2nc(CO)c(N)nc2-c2ccccc2)ccc1=O` [Example 47, 5-[5-amino-6-(hydroxymethyl)-3-phenyl-2-pyrazinyl]-1-isopropyl-2(1H)-pyridone], the Ki stood at 22.3 nM in data set [1] and 7.52 nM in data set [3]. For the same compound, in data set [2], the “Manifestation rate of Catalepsy” value is listed as 1/7.

With `CC(C)n1cc(-c2nc(C(=O)NCCO)c(N)nc2-c2ccccc2)ccc1=O` [Example 49, 3-Amino-N-(2-hydroxyethyl)-6-(1-isopropyl-6-oxo-1,6-dihydro-3-pyridyl)-5-phenyl-2-pyrazinecarboxamide], the results for the Ki in data set [1] and in data set [3] were 6.07 nM and 1.69 nM, respectively. Further, the “Manifestation rate of Catalepsy” value in data set [2] was 1/7.

Consider `CC(C)n1cc(-c2nc(Br)c(N)nc2-c2ccccc2)cc(Br)c1=O` [Example 53, 5-(5-amino-6-bromo-3-phenyl-2-pyrazinyl)-3-bromo-1-isopropyl-2(1H)-pyridone], for which the Ki in data set [1] was 0.93 nM; in data set [3] it was 0.91 nM. Further, the “Manifestation rate of Catalepsy” value in data set [2] is 0/7.

As to `CC(C)n1cc(-c2ncc(N)nc2-c2cccs2)ccc1=O` [Example 115, 5-[5-Amino-3-(2-thienyl)-2-pyrazinyl]-1-isopropyl-2(1H)-pyridone], the Ki turned out to be 4.89 nM in data set [1] and 0.84 nM in data set [3]. Besides, the “Manifestation rate of Catalepsy” value in data set [2] is on record as 0/7.

As for `CC(C)n1cc(-c2ncc(N)nc2-c2cc(F)cc(F)c2)ccc1=O` [Example 129, 5-[5-Amino-3-(3,5-difluorophenyl)-2-pyrazinyl]-1-isopropyl-2(1H)-pyridone], the Ki in data set [1] is 10.7 nM; in data set [3], 3.9 nM. Moreover, the “Manifestation rate of Catalepsy” value in data set [2] is 0/7.

For the compound `CC(C)n1cc(-c2nc(Br)c(N)nc2-c2ccccc2)ccc1=O` [Example 141, 5-(5-amino-6-bromo-3-phenyl-2-pyrazinyl)-1-isopropyl-2(1H)-pyridone], the Ki in data set [1] came out at 0.61 nM; in data set [3] it was 0.23 nM. Besides, in data set [2], the “Manifestation rate of Catalepsy” value is given as 0/7.

On to `CC(C)n1cc(-c2nc(-c3ccco3)c(N)nc2-c2ccccc2)ccc1=O` [Example 144, 5-[5-Amino-6-(2-furyl)-3-phenyl-2-pyrazinyl]-1-isopropyl-2(1H)-pyridone], for which the Ki is 1.78 nM in data set [1] and 0.54 nM in data set [3]. The “Manifestation rate of Catalepsy” value in data set [2] was 0/7.

For `CC(C)n1cc(-c2nc(Oc3ccccc3)c(N)nc2-c2ccccc2)ccc1=O` [Example 151, 5-(5-amino-6-phenoxy-3-phenyl-2-pyrazinyl)-1-isopropyl-2(1H)-pyridone], the Ki in data set [1] was found to be 1.57 nM; in data set [3] it was 0.32 nM. Further, the “Manifestation rate of Catalepsy” value in data set [2] is recorded as 0/7.
